Measurements as given in patent US8410107B2, “N-pyridin-3-yl or N-pyrazin-2-yl carboxamides” (Hoffmann-La Roche Inc., priority 2010, dated 2013).
Values belong to the molecule of their own block, whether it stands above or below them.

Columns and labels:
human CB2 receptor = target: T1, human CB2 receptor (Homo sapiens, UniProt P34972); experiment: CB2 receptor affinity ([3H]-CP-55,940 displacement, HEK cell membranes); assay type: binding; settings: displacement of radioligand [3H]-CP-55,940
T1 construct: expressed in transfected cells; host or cells: human embryonic kidney (HEK) cells, Semliki Forest Virus system, membrane preparations
T1 sequence (P34972 whole entry): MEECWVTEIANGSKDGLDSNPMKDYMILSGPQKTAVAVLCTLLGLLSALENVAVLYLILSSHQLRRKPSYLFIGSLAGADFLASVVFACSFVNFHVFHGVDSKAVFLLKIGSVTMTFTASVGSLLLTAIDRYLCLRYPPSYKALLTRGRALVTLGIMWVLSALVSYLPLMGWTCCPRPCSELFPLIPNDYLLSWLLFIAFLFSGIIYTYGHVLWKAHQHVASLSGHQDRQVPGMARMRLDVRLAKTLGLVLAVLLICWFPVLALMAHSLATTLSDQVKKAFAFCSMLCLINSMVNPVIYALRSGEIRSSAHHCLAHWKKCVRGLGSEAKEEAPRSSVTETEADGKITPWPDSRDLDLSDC
Protocol: (§1) The affinity of the compounds of the invention for cannabinoid CB2 receptors was determined using membrane preparations of human embryonic kidney (HEK) cells in which the human CB2 receptor is transiently transfected using a Semliki Forest Virus system in conjunction with [^3H]-CP-55,940 as radioligand. After incubation of freshly prepared cell membrane preparation with the [^3H]-ligand, with or without addition of compounds of the invention, separation of bound and free ligand was performed by filtration over glass fiber filters. Radioactivity on the filter was measured by scintillation counting.
(§2) The ability of the compounds to displace the radioligand [^3H]-CP-55,940 was measured at a concentration of 10 μM and values provided as [% inhibition @ 10 μM] both for the CB1 and CB2 receptor assay, The lower % inhibition is, the lower the likelihood of side effects based on CB1 or CB2 receptor inhibition is.

ABCA1 protein = experiment: Detection of upregulation of ABCA1 protein in cells (ApoA-I binding, high content image analysis); assay type: cell-based; settings: THP-1 macrophage cells; for EC50: ABCA1 protein increasing efficacy; for % increase of ABCA1 at 3 μM: 24 hrs with compound
Protocol: The ability of compounds of the invention to increase the level of ABCA1 protein is determined in replicate cultures of THP-1 macrophage cells in 96-well microplates. Cells are plated at an initial density of 100,000 cells/well in 100 μl medium and differentiated to adherent macrophages with the addition of PMA (100 nM) for 68 hrs in 10% fetal bovine serum, 3 μl/L of b-mercaptoethanol, RPMI-1640 medium. Then, cells are incubated with RPMI-1640 medium containing 1% FCS, 25 μg/ml acetylated LDL, for 24 hours at 37°. Following incubation with acetylated LDL, cells are washed twice with 50 μl PBS and incubated with 100 μl of RPMI-1640 medium containing the compound of interest solubilized in DMSO for an additional 24 hrs. The final DMSO concentration in presence of cells is maintained at 0.5%. ApoA-I binding assay using High Content Image Analysis is initiated by replacing with fresh medium, RPMI without Phenol Red, 0.2% BSA containing AlexaFluor®647 labeled ApoA-I for 2 h/37° C./5% CO2. Then, cells are fixed with 4% Formaldehyde inPBS (15 min, RT). Following Nuclei are stained with Hoechst solution (3 μM PBS) and Cytoplasm with Cell Mask Blue (2 μg/ml PBS), 15 min, RT. Finally the stained cells are fixed with a second round of formaldehyde treatment. Fixed stained cells are washed and kept in PBS at 4° C. and can be read immediately until one month after preparation.
The Alexa Fluor 647-labeled Apolipoprotein A-I (20 nM) was prepared as follows: Human recombinant Apolipoprotein A-I (ApoA-I) was exchanged to a buffer of 0.02 M NaHCO3 at pH 8.2 on an NAP desalting column (GE Healthcare) and brought to a concentration to 40 μM (1.13 mg/ml) by adjustment with the same buffer. The ApoA-I was fluorescently labeled by incubation with Alexa Fluor carboxylic acid succimidyl ester. (Alexa Fluor 647, Invitrogen A-20006) at a 2:1 molar ratio (Alexa to ApoA-I) for 1 h under shaking at RT. The remaining unconjugated label was removed by buffer exchange to 0.02M NaHCO3 at pH 8.2.
Imaging and data collection were performed on an OPERA confocal microplate imaging reader using a 20× water immersion objective and UV360 or 405 laser to identify the cell nuclei and a 635 laser to identify the fluorescent ApoA-I. Eight fields of view are captured per well. Image capture and analysis was performed with the Acapella software. Background fluorescence detected in control wells without ApoA-I was subtracted.
Using XLfit3 program (ID Business Solutions Ltd. UK), the model 205 for Dose Response One Site is used to calculate the EC50 values. The compounds of the present invention increase the level of ABCA1 protein by more than 45% at a concentration of 3 μM. […] Even more preferably, the compounds of the present invention have EC50 values in a range of 0.1 μM to 3 μM.

human CB1 receptor = target: T2, human CB1 receptor (Homo sapiens, UniProt P21554); experiment: CB1 receptor affinity ([3H]-CP-55,940 displacement, HEK cell membranes); assay type: binding; settings: displacement of radioligand [3H]-CP-55,940
T2 construct: expressed in transfected cells; host or cells: human embryonic kidney (HEK) cells, Semliki Forest Virus system, membrane preparations
T2 sequence (P21554 whole entry): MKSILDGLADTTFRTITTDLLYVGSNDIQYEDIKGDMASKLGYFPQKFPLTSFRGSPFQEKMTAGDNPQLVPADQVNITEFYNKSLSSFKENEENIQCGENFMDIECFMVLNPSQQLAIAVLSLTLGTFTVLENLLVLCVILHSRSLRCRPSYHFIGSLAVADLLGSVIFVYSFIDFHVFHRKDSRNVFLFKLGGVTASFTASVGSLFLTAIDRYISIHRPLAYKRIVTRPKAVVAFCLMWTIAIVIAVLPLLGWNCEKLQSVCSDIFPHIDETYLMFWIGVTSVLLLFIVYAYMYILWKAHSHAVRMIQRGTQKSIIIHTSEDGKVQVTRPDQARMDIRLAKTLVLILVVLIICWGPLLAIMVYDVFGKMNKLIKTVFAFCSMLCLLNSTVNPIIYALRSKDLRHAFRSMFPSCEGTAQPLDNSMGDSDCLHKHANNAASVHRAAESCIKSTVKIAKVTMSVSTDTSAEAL
Protocol: as §1, with “cannabinoid” for “cannabinoid CB2”, “CB1” for “CB2”, “[3H]-CP-55,940” for “[^3H]-CP-55,940”
as §2

SMILES: C[C@H](Oc1ncc(NC(=O)c2cccnn2)cc1-c1ccc(Cl)cc1)C(F)(F)F [Example 42, (S)-N-(5-(4-chlorophenyl)-6-(1,1,1-trifluoropropan-2-yloxy)pyridin-3-yl)pyridazine-3-carboxamide]
- inhibition at 10 µM (human CB2 receptor): 6%
- EC50 (ABCA1 protein): 8540 nM
- inhibition at 10 µM (human CB1 receptor): 23%

SMILES: C[C@H](Oc1ncc(NC(=O)c2cccnc2)cc1-c1ccc(Cl)cc1)C(F)(F)F [Example 43, (S)-N-(5-(4-chlorophenyl)-6-(1,1,1-trifluoropropan-2-yloxy)pyridin-3-yl)nicotinamide]
- inhibition at 10 µM (human CB2 receptor): 6%
- EC50 (ABCA1 protein): 5950 nM
- inhibition at 10 µM (human CB1 receptor): 31%

SMILES: O=C(Nc1cnc(OCC(F)(F)F)c(-c2ccc(Cl)c(F)c2)c1)c1cccnc1 [Example 44, N-(5-(4-chloro-3-fluorophenyl)-6-(2,2,2-trifluoroethoxy)pyridin-3-yl)nicotin-amide]
- inhibition at 10 µM (human CB2 receptor): 14%
- EC50 (ABCA1 protein): 1260 nM
- inhibition at 10 µM (human CB1 receptor): 15%

SMILES: O=C(Nc1cnc(OCC(F)(F)F)c(-c2ccc(F)c(Cl)c2)c1)c1cccnc1 [Example 45, N-(5-(3-chloro-4-fluorophenyl)-6-(2,2,2-trifluoroethoxy)pyridin-3-yl)nicotin-amide]
- inhibition at 10 µM (human CB2 receptor): 13%
- EC50 (ABCA1 protein): 1030 nM
- inhibition at 10 µM (human CB1 receptor): 11%

SMILES: O=C(Nc1cnc(OCC(F)(F)F)c(-c2ccc(Cl)cc2F)c1)c1cccnc1 [Example 46, N-(5-(4-chloro-2-fluorophenyl)-6-(2,2,2-trifluoroethoxy)pyridin-3-yl)nicotin-amide]
- inhibition at 10 µM (human CB2 receptor): -1%
- % increase of ABCA1 at 3 μM (ABCA1 protein): >45% @ 3 μM
- inhibition at 10 µM (human CB1 receptor): 40%

SMILES: CCc1ccc(-c2cc(NC(=O)c3cccnc3)cnc2OCC(F)(F)F)cc1 [Example 47, N-(5-(4-ethylphenyl)-6-(2,2,2-trifluoroethoxy)pyridin-3-yl)nicotinamide]
- inhibition at 10 µM (human CB2 receptor): 5%
- EC50 (ABCA1 protein): 1360 nM
- inhibition at 10 µM (human CB1 receptor): 34%

SMILES: C[C@H](Oc1ncc(NC(=O)c2cccnc2)nc1-c1ccc(Cl)cc1)C(F)(F)F [Example 48, (S)-N-(6-(4-chlorophenyl)-5-(1,1,1-trifluoropropan-2-yloxy)pyrazin-2-yl)nicotinamide]
- inhibition at 10 µM (human CB2 receptor): -2%
- % increase of ABCA1 at 3 μM (ABCA1 protein): >45% @ 3 μM
- inhibition at 10 µM (human CB1 receptor): 40%

SMILES: O=C(Nc1cnc(OC2CCC2)c(-c2ccc(Cl)cc2)n1)c1cccnc1 [Example 50, N-(6-(4-chlorophenyl)-5-cyclobutoxypyrazin-2-yl)nicotinamide]
- inhibition at 10 µM (human CB2 receptor): -1%
- EC50 (ABCA1 protein): 1500 nM
- inhibition at 10 µM (human CB1 receptor): 39%

SMILES: O=C(Nc1cnc(OC2CCC2)c(-c2ccc(Cl)cc2)n1)c1cncnc1 [Example 51, N-(6-(4-chlorophenyl)-5-cyclobutoxypyrazin-2-yl)pyrimidine-5-carboxamide]
- inhibition at 10 µM (human CB2 receptor): 6%
- % increase of ABCA1 at 3 μM (ABCA1 protein): >45% @ 3 μM
- inhibition at 10 µM (human CB1 receptor): 48%

The next lines start with results.

- inhibition at 10 µM (human CB2 receptor): -5%
- inhibition at 10 µM (human CB1 receptor): 19%
SMILES: O=C(Nc1cnc(OCC(F)(F)F)c(-c2ccc(Cl)cc2)c1)c1ccc(O)cn1 [Example 40, 5-hydroxy-pyridine-2-carboxylic acid[5-(4-chloro-phenyl)-6-(2,2,2-trifluoro-ethoxy)-pyridin-3-yl]-amide]
- EC50 (ABCA1 protein): 3310 nM

- inhibition at 10 µM (human CB2 receptor): 8%
- inhibition at 10 µM (human CB1 receptor): 31%
SMILES: Cc1cncc(C(=O)Nc2cnc(OCC(F)(F)F)c(-c3ccc(Cl)cc3)c2)c1 [Example 41, N-(5-(4-chlorophenyl)-6-(2,2,2-trifluoroethoxy)pyridin-3-yl)-5-methylnicotin-amide]
- % increase of ABCA1 at 3 μM (ABCA1 protein): >45% @ 3 μM

- inhibition at 10 µM (human CB2 receptor): -3%
- inhibition at 10 µM (human CB1 receptor): 39%
SMILES: O=C(Nc1cnc(OCC(F)(F)F)c(-c2ccc(Cl)cc2)n1)c1cccnc1 [Example 49, N-(6-(4-chlorophenyl)-5-(2,2,2-trifluoroethoxy)pyrazin-2-yl)nicotinamide]
- EC50 (ABCA1 protein): 300 nM

- inhibition at 10 µM (human CB2 receptor): 6%
- inhibition at 10 µM (human CB1 receptor): 34%
SMILES: Cc1cc(-c2cc(NC(=O)c3cncnc3)cnc2OCC(F)(F)F)ccc1Cl [Example 52, N-(5-(4-chloro-3-methylphenyl)-6-(2,2,2-trifluoroethoxy)pyridin-3-yl)pyrimidine-5-carboxamide]
- % increase of ABCA1 at 3 μM (ABCA1 protein): >45% @ 3 μM
